According to patent publication US20100267561A1, “HERBICIDAL PYRIDAZINONE DERIVATIVES” (priority 2007, published 2010):

Key:
Assay type in all cases: in vivo
[1] = tested on: Italian ryegrass (Lolium multiflorum); test: Test B pre-/postemergence plant response; conditions: for Ryegrass, Italian plant response rating: 8 g ai/ha
Description: (§1) Seeds of plant species selected from blackgrass (Alopecurus myosuroides), downy bromegrass (Bromus tectorum), green foxtail (Setaria viridis), Italian ryegrass (Lolium multiflorum), wheat (Triticum aestivum), wild oat (Avena fatua), catchweed bedstraw (Galium aparine), bermudagrass (Cynodon dactylon), surinam grass (Brachiaria decumbens), cocklebur (Xanthium strumarium), corn (Zea mays), large crabgrass (Digitaria sanguinalis), woolly cupgrass (Eriochloa villosa), giant foxtail (Setaria faberii), goosegrass (Eleusine indica), johnsongrass (Sorghum halepense), kochia (Kochia scoparia), lambsquarters (Chenopodium album), morningglory (Ipomoea coccinea), eastern black (E.B.) nightshade (Solanum ptycanthum), yellow nutsedge (Cyperus esculentus), pigweed (Amaranthus retroflexus), common ragweed (Ambrosia elation), Russian thistle (Salsola iberica), soybean (Glycine max), common (oilseed) sunflower (Helianthus annuus), and velvetleaf (Abutilon theophrasti) were planted and treated preemergence with test chemicals formulated in a non-phytotoxic solvent mixture which included a surfactant.
(§2) At the same time, plants selected from these crop and weed species and also winter barley (Hordeum vulgare), canarygrass (Phalaris minor), chickweed (Stellaria media) and windgrass (Apera spica-venti) were treated with postemergence applications of some of the test chemicals formulated in the same manner. Plants ranged in height from 2 to 18 cm (1- to 4-leaf stage) for postemergence treatments.
(§3) Plant species in the flooded paddy test consisted of rice (Oryza sativa), umbrella sedge (Cyperus difformis), ducksalad (Heteranthera limosa) and barnyardgrass (Echinochloa crus-galli) grown to the 2-leaf stage for testing. At time of treatment, test pots were flooded to 3 cm above the soil surface, treated by application of test compounds directly to the paddy water, and then maintained at that water depth for the duration of the test. Treated plants and controls were maintained in a greenhouse for 13 to 15 days, after which time all species were compared to controls and visually evaluated. Plant response ratings, summarized in Table B, are based on a scale of 0 to 100 where 0 is no effect and 100 is complete control. A dash (-) response means no test result.

[2] = tested on: bermudagrass (Cynodon dactylon); test: Test B pre-/postemergence plant response; conditions: for Bermudagrass plant response rating: 8 g ai/ha
Description: as §1, §2, §3

[3] = tested on: common (oilseed) sunflower (Helianthus annuus); test: Test B pre-/postemergence plant response; conditions: Preemergence
Description: as §1, §2, §3

[4] = tested on: downy bromegrass (Bromus tectorum); test: Test B pre-/postemergence plant response; conditions: for Bromegrass, Downy plant response rating: 8 g ai/ha
Description: as §1, §2, §3

[5] = tested on: giant foxtail (Setaria faberii); test: Test B pre-/postemergence plant response; conditions: for Foxtail, Giant plant response rating: 8 g ai/ha
Description: as §1, §2, §3

[6] = tested on: lambsquarters (Chenopodium album); test: Test B pre-/postemergence plant response; conditions: for Lambsquarters plant response rating: 8 g ai/ha
Description: as §1, §2, §3

[7] = tested on: morningglory (Ipomoea coccinea); test: Test B pre-/postemergence plant response; conditions: for Morningglory plant response rating: 8 g ai/ha
Description: as §1, §2, §3

[8] = tested on: pigweed (Amaranthus retroflexus); test: Test B pre-/postemergence plant response; conditions: for Pigweed plant response rating: 8 g ai/ha
Description: as §1, §2, §3

soybean (Glycine max) = test: Test B pre-/postemergence plant response; conditions: for Plant response rating, Soybean: Postemergence
Description: as §1, §2, §3

[9] = tested on: surinam grass (Brachiaria decumbens); test: Test B pre-/postemergence plant response; conditions: for Surinam Grass plant response rating: 8 g ai/ha
Description: as §1, §2, §3

[10] = tested on: wheat (Triticum aestivum); test: Test B pre-/postemergence plant response; conditions: for Wheat plant response rating: 8 g ai/ha
Description: as §1, §2, §3

[11] = tested on: canarygrass (Phalaris minor); test: Test B postemergence plant response; conditions: for Plant response rating, Canarygrass: Postemergence
Procedure, shortened: (§4)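 Visual injury score from 0 (none) to 100 (complete control) versus controls, taken 13 to 15 days after treatment in the greenhouse; chemicals applied postemergence, as formulated, to plants of 1- to 4-leaf stage (2 to 18 cm tall); dash denotes no test result.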

[12] = tested on: chickweed (Stellaria media); test: Test B postemergence plant response; conditions: for Plant response rating, Chickweed: Postemergence
Procedure, shortened: as §4

[13] = tested on: windgrass (Apera spica-venti); test: Test B postemergence plant response; conditions: for Plant response rating, Windgrass: Postemergence
Procedure, shortened: as §4

[14] = tested on: winter barley (Hordeum vulgare); test: Test B postemergence plant response; conditions: for Plant response rating, Barley: Postemergence
Procedure, shortened: as §4

[15] = Postemergence, 16 g ai/ha, scale 0 to 100
[16] = Postemergence, 31 g ai/ha, scale 0 to 100, 0 no effect, 100 complete control
[17] = Postemergence, 62 g ai/ha, scale 0 to 100
[18] = Preemergence, 16 g ai/ha, scale 0 to 100 (0 no effect, 100 complete control)
[19] = Preemergence, 31 g ai/ha, 0 to 100 scale, 0 no effect, 100 complete control
[20] = Preemergence, 62 g ai/ha, scale 0 to 100
[21] = 8 g ai/ha, postemergence, 0-100 scale
[22] = 31 g ai/ha, scale 0 to 100, 0 no effect, 100 complete control

CCc1cc(-c2ccc(Cl)c(Cl)c2)nn1-c1c(O)cnn(C)c1=O [Compound 20]
0: Bermudagrass plant response rating ([2]; postemergence, 0-100 scale) | Plant response rating, Bermudagrass [2, 15] | Plant response rating, Bermudagrass [2, 16] | Plant response rating, Bermudagrass [2, 17] | Bermudagrass plant response rating ([2]; Preemergence, scale 0 to 100 (0 no effect, 100 complete control)) | Plant response rating, Bermudagrass [2, 18] | Plant response rating, Bermudagrass [2, 19] | Plant response rating, Sunflower ([3]; 16 g ai/ha, scale 0 to 100 (0 no effect, 100 complete control)) | Sunflower plant response rating ([3]; 8 g ai/ha, scale 0 to 100) | Bromegrass, Downy plant response rating ([4]; postemergence, 0-100 scale) | Plant response rating, Bromegrass, Downy [4, 15] | Plant response rating, Bromegrass, Downy [4, 18] | Plant response rating, Bromegrass, Downy [4, 19] | Plant response rating, Bromegrass, Downy [4, 20] | Bromegrass, Downy plant response rating ([4]; Preemergence, scale 0 to 100) | Plant response rating, Foxtail, Giant [5, 18] | Foxtail, Giant plant response rating ([5]; Preemergence, scale 0 to 100) | Lambsquarters plant response rating ([6]; postemergence, 0-100 scale) | Plant response rating, Lambsquarters [6, 15] | Plant response rating, Lambsquarters [6, 16] | Lambsquarters plant response rating ([6]; Preemergence, scale 0 to 100) | Morningglory plant response rating ([7]; postemergence, 0-100 scale) | Plant response rating, Morningglory [7, 15] | Plant response rating, Morningglory [7, 16] | Plant response rating, Morningglory [7, 17] | Plant response rating, Morningglory [7, 18] | Plant response rating, Morningglory [7, 19] | Plant response rating, Morningglory [7, 20] | Morningglory plant response rating ([7]; Preemergence, scale 0 to 100) | Pigweed plant response rating ([8]; postemergence, 0-100 scale) | Plant response rating, Pigweed [8, 15] | Plant response rating, Pigweed [8, 16] | Plant response rating, Pigweed [8, 17] | Plant response rating, Pigweed [8, 18] | Plant response rating, Pigweed [8, 19] | Plant response rating, Pigweed [8, 20] | Pigweed plant response rating ([8]; Preemergence, scale 0 to 100) | Soybean plant response rating (soybean (Glycine max); [21]) | Plant response rating, Soybean (soybean (Glycine max); 16 g ai/ha, scale 0 to 100) | Plant response rating, Soybean (soybean (Glycine max); [22]) | Plant response rating, Soybean (soybean (Glycine max); 62 g ai/ha, scale 0 to 100) | Surinam Grass plant response rating ([9]; Preemergence, scale 0 to 100) | Wheat plant response rating ([10]; postemergence, 0-100 scale) | Plant response rating, Wheat [10, 18] | Plant response rating, Wheat [10, 19] | Plant response rating, Wheat [10, 20] | Wheat plant response rating ([10]; Preemergence, scale 0 to 100) | Chickweed plant response rating [12, 21] | Plant response rating, Chickweed ([12]; 16 g ai/ha, scale 0 to 100) | Plant response rating, Chickweed [12, 22] | Plant response rating, Chickweed ([12]; 62 g ai/ha, scale 0 to 100) | Barley plant response rating [14, 21] | Plant response rating, Barley ([14]; 16 g ai/ha, scale 0 to 100, 0 no effect, 100 complete control) | Plant response rating, Barley [14, 22] | Plant response rating, Barley ([14]; 62 g ai/ha, scale 0 to 100)
80: Foxtail, Giant plant response rating ([5]; postemergence, 0-100 scale)
60: Surinam Grass plant response rating ([9]; postemergence, 0-100 scale) | Plant response rating, Wheat [10, 17]
55: Plant response rating, Ryegrass, Italian [1, 15]
30: Ryegrass, Italian plant response rating ([1]; Preemergence, scale 0 to 100) | Plant response rating, Sunflower ([3]; 31 g ai/ha, 0 to 100 scale, 0 no effect, 100 complete control) | Plant response rating, Canarygrass ([11]; 16 g ai/ha, scale 0 to 100)
90: Plant response rating, Ryegrass, Italian [1, 16] | Plant response rating, Ryegrass, Italian [1, 17] | Plant response rating, Ryegrass, Italian [1, 20] | Plant response rating, Foxtail, Giant [5, 15] | Plant response rating, Surinam Grass [9, 15] | Plant response rating, Surinam Grass [9, 16] | Plant response rating, Windgrass ([13]; 62 g ai/ha, scale 0 to 100)
35: Plant response rating, Ryegrass, Italian [1, 18]
20: Plant response rating, Lambsquarters [6, 18] | Plant response rating, Surinam Grass [9, 18] | Plant response rating, Wheat [10, 15] | Plant response rating, Wheat [10, 16] | Windgrass plant response rating [13, 21]
100: Plant response rating, Foxtail, Giant [5, 20] | Plant response rating, Lambsquarters [6, 19] | Plant response rating, Lambsquarters [6, 20] | Plant response rating, Surinam Grass [9, 17] | Plant response rating, Surinam Grass [9, 20]
70: Plant response rating, Bermudagrass [2, 20] | Plant response rating, Windgrass ([13]; 16 g ai/ha, scale 0 to 100)
95: Plant response rating, Foxtail, Giant [5, 16] | Plant response rating, Foxtail, Giant [5, 17]
85: Plant response rating, Windgrass [13, 22]
5: Canarygrass plant response rating [11, 21]
40: Ryegrass, Italian plant response rating ([1]; postemergence, 0-100 scale) | Plant response rating, Ryegrass, Italian [1, 19] | Plant response rating, Sunflower ([3]; 62 g ai/ha, scale 0 to 100) | Plant response rating, Bromegrass, Downy [4, 16] | Plant response rating, Lambsquarters [6, 17]
50: Plant response rating, Bromegrass, Downy [4, 17] | Plant response rating, Foxtail, Giant [5, 19] | Plant response rating, Surinam Grass [9, 19] | Plant response rating, Canarygrass [11, 22]
